In patent publication US20230295197A1, “STAT5 and STAT6 Degraders and Uses Thereof” (REGENTS OF THE UNIVERSITY OF MICHICAN, priority 2022, published 2023):
Where two headings read alike, the source gives them in different places. *1 amine or outer side, *2 acyl side, *3 side chain or, on linkers, in order; H or OH if unused. Where a SMILES comes first, the peptide text is derived from it. [ ]: non-standard residue; d: D form. The star is where a group is joined. Benzothienyl2CO(5-CF2PO3H2) = O=C(c1cc2cc(C(F)(F)P(=O)(O)O)ccc2s1)*; βAla(N-(4-Br-phenyl)) = O=C(CCN(c1ccc(Br)cc1)[*:1])[*:2]; NHBn(4-(4-Me-thiazol-5-yl)) = Cc1ncsc1-c1ccc(CN*)cc1; Hyp = O=C(O)[C@@H]1C[C@@H](O)CN1; Tle = CC(C)(C)[C@H](N)C(=O)O; Aoc = NCCCCCCCC(=O)O; Ava = NCCCCC(=O)O

Biological target: T1, STAT6 (Homo sapiens, UniProt P42226)
T1 construct: endogenous in cells; host or cells: MOLM-16, KU-812, SKNO1, MB231, L1236
T1 sequence (P42226 1-847): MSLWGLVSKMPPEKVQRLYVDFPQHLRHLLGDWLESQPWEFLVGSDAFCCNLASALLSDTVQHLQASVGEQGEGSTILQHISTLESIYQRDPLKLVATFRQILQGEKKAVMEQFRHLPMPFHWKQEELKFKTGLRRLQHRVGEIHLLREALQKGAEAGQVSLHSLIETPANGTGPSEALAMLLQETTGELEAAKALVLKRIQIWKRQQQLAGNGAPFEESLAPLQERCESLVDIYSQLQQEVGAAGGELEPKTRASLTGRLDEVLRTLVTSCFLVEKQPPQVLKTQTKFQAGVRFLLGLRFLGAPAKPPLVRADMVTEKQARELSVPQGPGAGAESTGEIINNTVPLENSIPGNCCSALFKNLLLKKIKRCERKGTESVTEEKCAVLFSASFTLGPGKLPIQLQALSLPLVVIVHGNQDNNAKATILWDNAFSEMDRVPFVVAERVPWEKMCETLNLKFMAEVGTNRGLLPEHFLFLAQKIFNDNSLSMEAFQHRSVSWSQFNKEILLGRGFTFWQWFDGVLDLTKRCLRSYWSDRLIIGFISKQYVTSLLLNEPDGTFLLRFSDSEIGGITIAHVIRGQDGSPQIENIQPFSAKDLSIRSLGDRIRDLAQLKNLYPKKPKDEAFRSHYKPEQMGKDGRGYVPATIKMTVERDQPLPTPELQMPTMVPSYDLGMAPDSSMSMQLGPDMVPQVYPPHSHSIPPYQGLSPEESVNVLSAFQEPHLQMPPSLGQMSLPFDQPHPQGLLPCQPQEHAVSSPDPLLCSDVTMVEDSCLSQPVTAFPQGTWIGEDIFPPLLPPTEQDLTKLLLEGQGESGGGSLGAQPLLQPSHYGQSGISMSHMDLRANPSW
Experiment: Immunoblotting (Western blot) analysis of STAT6 degradation efficiency of degraders in treated cells
Assay type: cell-based
Experimental: Evaluation of the degradation efficiency of degraders may be accomplished by immunoblotting analysis. The representative general protocol is the following:
Cells are maintained in the appropriate culture medium with 10% FBS at 37° C. and an atmosphere of 5% CO2. Cell lines are used within three months of thawing fresh vials. Cells are lysed 1× Cell Lysis Buffer (Cell Signaling Technology, #9803), resolved by SDS-PAGE NuPAGE gel (Thermo Fisher Scientific), and transferred to a PVDF membrane (Millipore). Membranes are blocked using Odyssey TBS Blocker Buffer (LI-COR). IRDye 680RD and 800CW Dye-labeled secondary antibodies (LI-COR) are used. The washed membranes are scanned using Odyssey CLx imager (LI-COR). The intensity of Western blot signaling is quantitated using the Odyssey software. Primary antibodies used are: STAT5 Rabbit mAb (Cell Signaling Technology, #94205), STAT6 Rabbit mAb (Cell Signaling Technology, #5397) and GAPDH mouse monoclonal antibody (Santa Cruz Biotechnology, sc-47724).
To evaluate the degradation efficiency of degraders, immunoblotting analysis was performed. The general protocol is the following.
About 1 million cells for each data point were treated with compounds at indicated concentrations and durations. Untreated and treated cells in cell culture medium were transferred into tubes, followed by centrifugation at 3,000 rpm and 4° C. for 6 min Supernatants were removed from tubes and radioimmunoprecipitation assay (RIPA) lysis buffer supplemented with 1% protease inhibitor cocktail (Fisher Scientific cat. PI87786) and phosphatase inhibitor (Roche cat. 04906837001) were added to tubes containing the remaining cell pellets. The tubes were then left on ice for 30 min and placed in a −80° C. freezer. Subsequently they were thawed in 37° C. water, then centrifuged at 14,000 rpm for 15 min and the cell lysates transferred to new tubes. The concentration of total proteins in each tube was calculated using the Pierce BCA protein Assay kit (cat. 23225). Based on the calculated protein concentration, cell lysates containing approximately the same amount of proteins were transferred to new tubes, then distilled water and 4× Protein Sample Loading Buffer for Western Blots (LI-COR cat. 928-40004) supplemented with 20% of mercaptoethanol (Sigma Aldrich cat. M6250) were added on ice. The cell lysates were then reduced and denatured at 95° C. for 5 min. From the tubes containing cell lysates an equal amount of protein samples (20-40 μg) was loaded into precast 8%, 10%, 4%-12%, or 4%-20% Tris-glycine gels (Novex) filled with Tris-glycine SDS running buffer. After the proteins were resolved, they were transferred onto Immobile-FL PVDF Membrane (Millipore Sigma cat. IPFL00010), using Mini Trans-Blot Electrophoretic Transfer Cell (Bio-Rad 1703930). The membranes were blocked with Intercept Blocking Buffer (LI-COR cat. 927-70001) in LI-COR Western Blot boxes for 1 h at rt. The membranes were washed with 1× Tris-buffered saline-Tween-20 (TBST, 1× solution was made from 20×TBST solution, ThermoFisher Scientific cat. 28360) for 5 min 4 times. The membranes were incubated overnight at 4° C. in Intercept Blocking Buffer supplemented with primary antibodies (normally antibody:buffer 1:1000) and Tween-20. The membranes were washed with TBST for 5 min 4 times and were incubated with Intercept Blocking Buffer supplemented with IRDye 800CE Secondary Antibodies, IRDye 680RD Secondary Antibodies (LI-COR biosciences), Tween-20, and 10% SDS solution, for 1 h at rt. The membranes were then washed with TBST for 5 min 4 times and rinsed with deionized water before drying and scanning with Odyssey Dlx Amazing System (LI-COR). The immunoblots were finally quantified by the software.

[1] = read-out: DC50 S6 MB231, MB231 cells
[2] = L1236 cells, read-out: DC50 S6 L1236
[3] = MOLM-16 cells, class symbols, read-out: DC50 S6 MOLM-16

Row | DC50 (MOLM-16 cells, numeric bound, read-out: DC50 S6 MOLM-16) [µM] | SMILES | DC50 [1] [µM] | DC50 [2] [µM] | DC50 [3] [µM]
1 | – | Cc1ncsc1-c1ccc(CNC(=O)[C@@H]2C[C@@H](O)CN2C(=O)[C@@H](NC(=O)CCCCCCCNC(=O)CCN(C(=O)[C@@H]2CCCN2C(=O)[C@@H](NC(=O)c2cc3cc(C(F)(F)P(=O)(O)O)ccc3s2)C(C)(C)C)c2ccc(Br)cc2)C(C)(C)C)cc1 [Compound 398] ({Benzothienyl2CO(5-CF2PO3H2)}-[Tle]P[βAla(N-(4-Br-phenyl))][Aoc][Tle][Hyp]-{NHBn(4-(4-Me-thiazol-5-yl))}) | > 10 | – | –
2 | – | Cc1ncsc1-c1ccc(CNC(=O)[C@@H]2C[C@@H](O)CN2C(=O)[C@@H](NC(=O)CCCCNC(=O)CCN(C(=O)[C@@H]2CCCN2C(=O)[C@@H](NC(=O)c2cc3cc(C(F)(F)P(=O)(O)O)ccc3s2)C(C)(C)C)c2ccc(Br)cc2)C(C)(C)C)cc1 [Compound 401] ({Benzothienyl2CO(5-CF2PO3H2)}-[Tle]P[βAla(N-(4-Br-phenyl))][Ava][Tle][Hyp]-{NHBn(4-(4-Me-thiazol-5-yl))}) | > 10 | – | –
3 | – | Cc1ncsc1-c1ccc([C@H](C)NC(=O)[C@@H]2C[C@@H](O)CN2C(=O)[C@@H](NC(=O)CNC(=O)CC(=O)N2CCN(C(=O)[C@@H](NC(=O)c3cc4cc(C(F)(F)P(=O)(O)O)ccc4s3)C(C)(C)C)[C@H](C(=O)N3CCC[C@H](c4ccccc4)C3)C2)C(C)(C)C)cc1 [Compound 452, (difluoro(2-(((S)-1-((S)-4-(3-((2-(((S)-1-((2S,4R)-4-hydroxy-2-(((S)-1-(4-(4-methylthiazol-5-yl)phenyl)ethyl)carbamoyl)pyrrolidin-1-yl)-3,3-dimethyl-1-oxobutan-2-yl)amino)-2-oxoethyl)amino)-3-oxopropanoyl)-2-((R)-3-phenylpiperidine-1-carbonyl)piperazin-1-yl)-3,3-dimethyl-1-oxobutan-2-yl)carbamoyl)benzo[b]thiophen-5-yl)methyl)phosphonic acid] | – | > 10 | > 10
4 | – | Cc1ncsc1-c1ccc([C@H](C)NC(=O)[C@@H]2C[C@@H](O)CN2C(=O)[C@@H](NC(=O)CNC(=O)COc2ccc3c(c2)CN(C(=O)[C@@H](NC(=O)c2cc4cc(C(F)(F)P(=O)(O)O)ccc4s2)C(C)(C)C)[C@H](C(=O)N2CCO[C@H](c4ccccc4)C2)C3)C(C)(C)C)cc1 [Compound 461, (difluoro(2-(((S)-1-((S)-7-(2-((2-(((S)-1-((2S,4R)-4-hydroxy-2-(((S)-1-(4-(4-methylthiazol-5-yl)phenyl)ethyl)carbamoyl)pyrrolidin-1-yl)-3,3-dimethyl-1-oxobutan-2-yl)amino)-2-oxoethyl)amino)-2-oxoethoxy)-3-((R)-2-phenylmorpholine-4-carbonyl)-3,4-dihydroisoquinolin-2(1H)-yl)-3,3-dimethyl-1-oxobutan-2-yl)carbamoyl)benzo[b]thiophen-5-yl)methyl)phosphonic acid] | – | > 10 | > 10
5 | > 0.3 | CC(C)(C)[C@H](NC(=O)c1cc2cc(C(F)(F)P(=O)(O)O)ccc2s1)C(=O)N1C[C@@H](OCCCCCC#Cc2cccc3c2CN(C2CCC(=O)NC2=O)C3=O)C[C@H]1C(=O)N1CCC[C@H](c2ccccc2)C1 (stereo partly drawn) [Compound 601, ((2-(((2S)-1-((2S,4S)-4-((7-(2-(2,6-dioxopiperidin-3-yl)-1-oxoisoindolin-4-yl)hept-6-yn-1-yl)oxy)-2-((R)-3-phenylpiperidine-1-carbonyl)pyrrolidin-1-yl)-3,3-dimethyl-1-oxobutan-2-yl)carbamoyl)benzo[b]thiophen-5-yl)difluoromethyl)phosphonic acid] | – | – | –
